{"source": "paper PMC9289467", "about": "“A Novel Multifunctional 5,6-Dimethoxy-Indanone-Chalcone-Carbamate Hybrids Alleviates Cognitive Decline in Alzheimer’s Disease by Dual Inhibition of Acetylcholinesterase and Inflammation” (Frontiers in Aging Neuroscience, 2022)", "key": {"Iba1+ microglia": {"test_system": "Iba1+ microglia", "test": "Iba1 immunohistochemistry, microglia morphology, APP/PS1 mice", "type": "in vivo", "conditions": "AP5 40 mg/kg once daily 5 months", "description": "(§1) APP/PS1 mice of ages 6 months were randomly divided into vehicle (APP/PS1, n = 10) and treatment groups (AP5, n = 10), which were intragastrically administered with AP5 (40 mg/kg) once daily for consecutive 5 months. AP5 was dissolved in distilled water containing 1% sodium carboxymethyl cellulose.\n(§2) The fixed hemibrains were paraffin-embedded and sectioned in the coronal plane. The slices were deparaffinized with xylene and rehydrated by a series of gradient alcohols. Antigen retrieval through microwave boiling was performed with 10 mM sodium citrate solution at pH 6.0. The slices were cooled down to room temperature and then rinsed in PBS solution. Then the slices were incubated in 10% goat serum blocking solution for 1 h followed by primary antibodies overnight at 4°C. The next day, the slides were labeled with biotinylated or fluorescent secondary antibodies. Slices were washed three times with PBS before being mounted. Images were captured using a SpinSR10 scanner (Olympus, Tokyo, Japan). […]\nAfter deparaffinization and antigen retrieval, the sections were incubated with 0.3% hydrogen peroxide (H2O2) to inhibit endogenous peroxidase activity for 20 min and blocked by goat serum for 30 min at37°C. Slides were subsequently incubated overnight with specific primary antibodies: anti-Iba1(1:100, ab178847, Abcam, Cambridge, UK) or anti-GFAP (1:100, bs-0199R, Bioss) at4 °C. […]"}, "ACh": {"test_system": "ACh", "test": "Brain ACh level, Amplex Red kit, APP/PS1 mice", "type": "in vivo, mouse", "conditions": "AP5 40 mg/kg intragastric once daily 5 months, vs APP/PS1 mice", "description": "as §1\nThe brain samples were weighed, homogenized in PBS solution, and centrifuged for 20 min at 25,000 g at 4°C. Amplex® Red acetylcholinesterase/acetylcholine assay kit (A12217, Thermo Fisher Scientific) was used to detect AChE activity and ACh levels in the supernatant in accordance with the manufacturer’s instructions.\nBriefly, for ACh assay, the reactions were started by adding 100 µL of the Amplex Red reagent, HRP, choline oxidase, AChE working solution to each microplate well containing the controls and samples. For AChE assay, detection cocktail solution containing ACh, Amplex Red, choline oxidase and horseradish peroxidase was added toeach well. Assay plates were incubated at room temperature for 30 min and protected from light, followed by detecting fluorescence of resorufin (λex = 544 nm, λem = 590 nm) in a fluorescence microplate reader.\nAfter deparaffinization and antigen retrieval, the sections were incubated with 0.3% hydrogen peroxide (H2O2) to inhibit endogenous peroxidase activity for 20 min and blocked by goat serum for 30 min at37°C. […]"}, "ThS-positive plaque": {"test_system": "ThS-positive plaque", "test": "Thioflavin S staining of amyloid plaques, APP/PS1 mice", "type": "in vivo", "conditions": "cortex and hippocampus; AP5 40 mg/kg once daily 5 months", "description": "as §1\nThe hemisphere slices were stained with 0.5% fluorescent amyloid dye Thioflavin S (ThS, T1892, Sigma Aldrich) in the dark for 10 min followed by three washes with 50% ethyl alcohol and a final wash in PBS. Image analysis of the number and size of cortical and hippocampal ThS positive plaques was carried out on Image J FIJI software with “analyze particles” function."}, "Aβ": {"test_system": "Aβ", "test": "MOAB-2 immunofluorescence of Aβ, APP/PS1 mice", "type": "in vivo", "conditions": "cortex and hippocampus; AP5 40 mg/kg once daily 5 months", "description": "as §1, §2\nCambridge, UK) or anti-GFAP (1:100, bs-0199R, Bioss) at4 °C. After being washed with PBS, slides were treated with a biotinylated secondary antibody for 30 min and with streptavidin-peroxidase complex for another 30 min at 37°C. Immunostaining was visualized with 3,3′-diaminobenzidine (DAB, ZL1-9018, Zhongshan Jinqiao, Beijing, China ).The images were acquired using a Nikon microscope (Nikon, […]"}, "[1]": {"test_system": "Aβ plaque-associated microglia and astrocytes", "test": "Plaque-associated microglia and astrocytes (MOAB-2 with Iba1 or GFAP co-staining)", "type": "in vivo, APP/PS1 mice", "description": "as §1\nThe fixed hemibrains were paraffin-embedded and sectioned in the coronal plane. The slices were deparaffinized with xylene and rehydrated by a series of gradient alcohols. Antigen retrieval through microwave boiling was performed with 10 mM sodium citrate solution at pH 6.0. The slices were cooled down to room temperature and then rinsed in PBS solution. […]\n(1:100, BAF2655, R&D, Minneapolis, MN, USA). […] For the quantification of Aβ plaque-associated microglia and astrocyte, Iba1- and GFAP-immunopositive cells around plaques were counted. On each slide, ten plaques were randomly determined and the microglia (nuclei) in the immediate vicinity (two times the plaque diameter) of each plaque were counted. For colocalization of PSD95 and synaptophysin, images were analyzed with the puncta analyzer plugin with a minimum pixel specification of 4 in Image Jand thresholding was consistent for every image. […]\nanti-synaptophysin (1:1000, 67864-1-lg, Proteintech) overnight at 4°C. […] Densitometric analysis was performed using Quantity One software (Bio-Rad, Berkeley, CA, USA). […]"}}, "data": [{"compound": "CCN(C)C(=O)Oc1cccc(/C=C2\\Cc3cc(OC)c(OC)cc3C2=O)c1", "note": "[AP5, (E)-3-((5,6-dimethoxy-1-oxo-1,3-dihydro-2H-inden-2-ylidene)-methyl)phenylethyl(methyl)carbamate]", "values": [{"measurement": "proportion of activated microglia phenotype", "setting": "Iba1+ microglia", "value": "marked decrease"}, {"measurement": "ACh levels in cortex and hippocampus", "setting": "ACh", "value": "elevated levels of ACh"}, {"measurement": "load of ThS-positive plaque", "setting": "ThS-positive plaque", "value": "pronounced reduction"}, {"measurement": "number of ThS-positive plaque", "setting": "ThS-positive plaque", "value": "pronounced reduction"}, {"measurement": "area occupied by unaggregated and aggregated Aβ (MOAB-2)", "setting": "Aβ", "value": "also decreased"}, {"measurement": "number of astrocytes around Aβ plaque", "setting": "[1]; MOAB-2 and GFAP co-staining", "value": "no statistical difference"}, {"measurement": "plaque-associated microglia", "setting": "[1]; MOAB-2 and Iba1 co-staining", "value": "increased clustering of microglia surrounding a plaque"}]}]}
